Data taken from patent publication US20250109216A1, “COMPOSITIONS AND METHODS FOR CROSSLINKING FC RECEPTORS” (The University of North Carolina at Chapel Hill, priority 2016, published 2025).
Entries after “also recorded” stand apart in the source; their conditions may differ.

Legend:
Assay type in all cases: cell-based, mice
[1] = tested on: MRL/lpr Mφs; test: Recycling of IgG-IC flow cytometry (surface bound IgG-ICs); settings: pre-treated with drugs 2 hr, surface IgG-ICs at 72 hrs
Procedure: (§1) FIGS. 6A-6B. […] (6A). BMMφs from B6 and MRL/lpr mice were stimulated with IgG-ICs±TGX-221 (p110β), IC87114 (p110δ), or Torin1 (mTorC1/C2), and ratiometric flow cytometry was used to quantify the relative phagosomal pH. (6B). Cells were pre-treated with drugs (for 2 hr) and given IgG-ICs. IgG-ICs were removed after 2 hr. Cells remained on drug for the duration of the experiment. At 72 hrs, levels of surface bound IgG-ICs were analyzed by flow cytometry. All values are normalized to B6 untreated. n=3-7.
Cells (0.25×10^6) were rested in R10 media for 1 hr at 37° C. prior to the addition of any reagents. IgG-ICs were added, incubated for given duration, and removed at each time points. […]
BMMφs were incubated (37° C., 5% CO2) with 40 μL Alexa Fluor® 488-labeled IgG-ICs in R10 media (as above). To quantify surface bound ICs at 0 hours, phagocytic uptake was impaired by culturing with IgG-ICs on ice for 2 hours. […] One sample was incubated with an anti-Alexa Fluor® 488 antibody (quenches Alexa Fluor® 488 fluorescence), while the other sample was left in FACS media for 30 min on ice. […] Surface bound IgG-ICs were calculated by subtracting the MFI of the quenched sample (intracellular IgG-ICs) from the MFI of the unquenched sample (total IgG-ICs). […]

[2] = tested on: MRL/lpr Mφs; test: Lysosome acidification after IgG-IC stimulation, ratiometric flow cytometry (relative phagosomal pH); settings: MRL/lpr Mφs/BMMFs stimulated with IgG-ICs; inhibitor added 2 hours prior and left on
Procedure: as §1
FIGS. 9A-9C. […] (9A). BMMφs (left panel) or splenic CD11b+ myeloid cells from B6 and MRL/lpr (right panel) were stimulated with IgG-ICs±SM-PEG (1, 2) (5 μg/mL) or control SM-PEG […] (5 μg/mL), and ratiometric flow cytometry was used to quantify the relative phagosomal pH. For internal control, cells were treated with concanamycin A (CMA) 2 hrs prior to IgG-ICs treatment (T0+CMA) to inhibit lysosomal pH change. 2-7 mice, >2 experiments. (9B). BMMφs (left panel) or splenic CD11b+ myeloid cells (right panel) were stimulated with SM-PEG (1, 2) or control SM-PEG (2, 1), or left unstimulated for 30 min or 60 min. At each time points, fixed cells were analyzed for surface bound nucleosomes. 2 mice, 2 experiments. (9C). BMMφs were stimulated with IgG-ICs±SM-PEG(1, 2) (5 μg/mL) for 1 hr, then pAKT (Ser/Thr) and pSHIP1 levels were assessed by flow cytometry. Phospho-proteins were normalized to isotype controls and the levels of total protein. 4 mice, 4 experiments.
The acidotropic dye LysoSensor™ Yellow/Blue can be used to quantify the pH or lysosomes using ratiometric imaging. […] For this adaptation, we loaded cells with an acidotropic dye and concurrently analyzed cells by microscopy (with pH standards) and flow cytometry. […]
Cells were incubated (37° C., 5% CO2) for 2 hours prior to the addition of 40 μL of IgG-ICs in R10 media (as above). […] At each time points, LysoSensor™ (2 mg/mL) was added and incubated for 15 min, then, analyzed by flow cytometry. […] Relative pH was quantified by ratioing the MFIs from the emission channels (450/20 nm, 585/42 nm) (normalized to concanamycin A control). […]

[3] = tested on: B6 MFs; test: Recycling of IgG-ICs in B6 MFs treated with concanamycin A
Procedure: BMMφs were incubated (37° C., 5% CO2) with 40 μL Alexa Fluor® 488-labeled IgG-ICs in R10 media (as above). To quantify surface bound ICs at 0 hours, phagocytic uptake was impaired by culturing with IgG-ICs on ice for 2 hours. This was sufficient to allow the ICs to bind to the surface of the cell but not be phagocytosed. For all other time points, cells were incubated (37° C., 5% CO2) for 2 hours, then media was replaced to remove all unbound ICs. At indicated time points, cells were blocked in 2.4G2 for 30 min on ice in FACS media, washed, and split into 2 samples. One sample was incubated with an anti-Alexa Fluor® 488 antibody (quenches Alexa Fluor® 488 fluorescence), while the other sample was left in FACS media for 30 min on ice. Both samples were washed and fixed with 2% paraformaldehyde and incubated at 4° C. for 15 min. Surface bound IgG-ICs were calculated by subtracting the MFI of the quenched sample (intracellular IgG-ICs) from the MFI of the unquenched sample (total IgG-ICs). Values were normalized to B6 0 hr.

[4] = tested on: MRL/lpr BMMφ; test: mTOR localization by confocal imaging; settings: MRL/lpr BMMφs; Torin1 250 ng/mL for 2 hrs
Procedure: FIGS. 5A-5B. Localization of mTOR is defective in MRL/lpr BMMφ. (5A-5B). Unstimulated BMMφs cultured±Torin1 (250 ng/mL) for 2 hrs were examined for mTOR localization with CD11b by confocal imaging. Colocalization of mTOR to membrane (CD11b) is quantitated by mander's coefficient (5A). Total cellular mTOR levels were quantitated using ImageJ software (5B); 3 exp, 2-3 mice, 10-29 cells.
BMMφs were cultured with IgG-ICs in R10 media at 37° C. For measuring lipid rafts fluorescently labeled CTx was added to the culture 30 min prior to fixation. For the nuclear stain, hoechst was added 15 min prior to fixation. Mφs were fixed with 2% paraformaldehyde, then incubated at 4° C. for 15 min. Cells were blocked in 2.4G2 for 30 min at 4° C. in FACs media (PBS with 2% FBS, 0.02% NaN3), washed, and stained with primary and corresponding secondary antibodies in permeabilization buffer (PBS with 0.05% Saponin and 0.5% BSA) for 30 min at 4° C. Mφs were imaged in FACs media or resuspended in FluorSave™ and imaged. […] Data were analyzed using ImageJ. Colocalization was measured by calculating the Mander's coefficient (colocalized pixels/total fluorescent pixels) in all the cells imaged.

Row | Compound | recycling of IgG-ICs (surface bound IgG-ICs) [1] | lysosome acidification [2] | recycling of IgG-ICs [3] | mTOR localization [4]
1 | Cc1cc(C(C)Nc2ccccc2)c2nc(N3CCOCC3)cc(=O)n2c1 (stereo not shown) [TGX-221] | prevented the recycling of IgG-ICs | restored lysosome acidification to levels comparable to B6; also recorded: restored lysosomal acidification | – | –
2 | Cc1ccccc1-n1c(Cn2cnc3c(N)ncnc32)nc2cccc(C)c2c1=O [IC87114] | prevented the recycling of IgG-ICs | restored lysosome acidification to levels comparable to B6; also recorded: restored lysosomal acidification | – | –
3 | C/C=C/[C@H]1O[C@@](O)([C@@H](C)[C@H](O)[C@H](C)[C@H]2OC(=O)/C(OC)=C/C(C)=C/[C@@H](C)[C@@H](O)[C@@H](CC)[C@@H](O)[C@H](C)C/C(C)=C/C=C/[C@@H]2OC)C[C@@H](O[C@H]2C[C@@H](O)[C@H](OC(N)=O)[C@@H](C)O2)[C@@H]1C [concanamycin A] | – | – | promotes the recycling of IgG-ICs | –
4 | CCC(=O)N1CCN(c2ccc(-n3c(=O)ccc4cnc5ccc(-c6cnc7ccccc7c6)cc5c43)cc2C(F)(F)F)CC1 [Torin1] | – | restored lysosome acidification to levels comparable to B6; also recorded: restored lysosomal acidification | – | restored mTOR to a cytosolic location
